# From patent US20120213789A1, “New Molecular Target for Treatment of Cancer” (priority 2001, published 2012)
# Columns and labels:
# LNCaP Prostate Cell Line = test: Dual label UROC28/Bcl-2 flow cytometry after SPB treatment; assay type: cell-based, human
# Method: (§1) Cells were grown to 70-80% confluence at 37° C. and 5% CO2 in T-75 tissue culture plastic flasks. SPB stock solution was added to final concentrations of 0.5, 5.0, 10.0, and 25.0 mM in appropriate fresh media to the cell cultures. Cells were incubated at 37° C. and 5% CO2 for 72 hours. Attached cells were then harvested using a solution of 0.05% trypsin and 0.53 mM EDTA (Invitrogen Corp.). Attached cells were then pooled with any the detached cells and washed with PBS pH 7.2. Cell numbers and percent viability were determined using Trypan blue dye exclusion and a hemacytometer. At the time of their use in an experiment the viability was usually about 85% for untreated cells and a range of about 15-70% for treated cells, with the lower viabilities found at higher SPB concentrations (Thompson C, 1995; Cory et al., 1998; van Engeland et al., 1996).
# UC28(C) is 2.14 mg/ml rabbit polyclonal aliquot directed against the inventors' UC28 patented biomarker developed by UCor R&D gene discovery program. The Antibody was produced against a twenty amino acid (AA) synthetic peptide from the predicted AA sequence (AA 21-37) UCor, Inc. 840 Research Parkway Oklahoma City, Okla. 73104.
# Goat Anti-Rabbit CY5 polyclonal Fluorchrome was used as the secondary conjugate for UC28 C rabbit polyclonal antibody and a background control for UC28 C polyclonal. Vendor is Jackson ImmunoResearch Laboratories, Inc. 872 West Baltimore Pike, P.O. Box 9 West Grove, Pa. 19390.
# Bc12 IgG1 kappa-FITC isomer 1 is a purified monoclonal mouse specific for Bc1-2 protein. Vendor is Dalco Corporation 6392 Via Real, Carpinteria, Calif. 93013 USA.
# MsIgG1 kappa-FITC isomer 1 is a purified isotype specific control for Bc1-2 monoclonal antibody. Vendor is Dako Corporation 6392 Via Real, Carpinteria, Calif. 93013 USA.
# Cytofix/Cytoperm™ ICit enables fixation and permeabilization of cells prior to staining with fluorochrome-conjugated antibodies. Vendor is BD-PharMingen, 10975 Torreyana Road, San Diego, Calif. 92121-1106.
# A Coulter Elite engineered with a triple laser system was used to analyze all samples. Coulter control beads were used to align lasers for the dual label testing of cell samples. Laser alignment was required for both the Argon (488 nm line) laser and HeNe (633 nm line) laser. These alignments were performed prior to all measurements with the Argon laser (488 nm line) using fluorophores for FITC, RPE, PI and the HeNe laser (633 nm line) for the Cy5 fluorophores being used for the experiments described below. The histographs, voltage settings, gates, color compensation, and pressures were established prior to all sample processing.
# (a) Tissue culture cells (MLC-SV40, LNCaP and C 4-2B) were aliquoted at concentration of 1×10^6 per teach 12×75 mm polystyrene tube. […]
# [1] = test system: C4-2B metastatic cell line; test: Secretion of soluble tPSA and fPSA under SPB treatment; assay type: cell-based, human; conditions: culture supernatants
# Method: as §1, with “1996). […] The data confirms the biological differences in these three cell lines and provides a stronger basis upon which to assess the behavior of the UC28 gene under the same SPB treatment conditions. For both of these experiments, supernatants were collected from the same experiments as in Example 1; cells were collected and assayed for apoptosis as well as for UC28 antigen expression using antibodies to SEQ ID NO:4.” for “1996).”
smiles,measurement,setting,value
"O=C([O-])CCCc1ccccc1.[Na+] [SPB, 4-Phenylbutyric Acid, Sodium Salt]",Total Bcl-2,LNCaP Prostate Cell Line; 5.0 mM SPB,23.8%
same,Total UC2BC,LNCaP Prostate Cell Line; 5.0 mM SPB,87.7%
same,Total Bcl-2,LNCaP Prostate Cell Line; 10 mM SPB,15.6%
same,Total UC2BC,LNCaP Prostate Cell Line; 10 mM SPB,83.0%
same,fPSA production,[1],down-regulated
same,tPSA production,[1],down-regulated
